# According to patent publication US20260248767A1, “METHODS FOR INDUCING FERROPTOSIS IN CANCER” (Board of Regents, The University of Texas System, priority 2023, published 2026):
# Assays:
# Format in all cases: cell-based
# [1] = system: cells; test: Metabolomic analysis of vehicle or sulfite treated cells
# Method: Metabolomic analysis was performed in vehicle or sulfite treated cells. An increase in the levels of 6-phospho-D-Gluconate (FIG. 3C), ribose phosphate (FIG. 3D), D-Glyceraldehyde 3-phosphate (FIG. 3E), D-sedoheptulose-1/7 phosphate (FIG. 3F), NDAP+/NADPH ratio (FIG. 3G), oxPPP shunting (FIG. 3H) were observed.
# Metabolomic analysis was performed as previously described (Liu, X. et al. Nat Cell Biol 22, 476-486, doi: 10.1038/s41556-020-0496-x (2020)). Cells were seeded on 35-mm culture plates at a density sufficient to ensure approximately 70-80% confluence at the time of extraction. Metabolites were extracted at the indicated time points for subsequent analyses. Metabolites were extracted by rapidly aspirating the culture medium and then adding 500 μl of an 80% methanol: 20% water mixture at dry ice temperature. The plates were incubated on dry ice for 15 min before the cells were scraped into pre-chilled Eppendorf tubes. The cell debris was pelleted by centrifugation at 13,000 ref for 5 min at 4° C. and the supernatant was transferred into a fresh tube and stored on dry ice until analysis. Just before analysis, 500 μl of extract was dried under nitrogen gas flow and then resuspended in 100 μl water.
# The complete platform consists of an Accela 1250 HPLC system, Accela Open Autosampler, MayLab Mistraswitch column oven and Exactive orbitrap mass spectrometer, controlled by the Xcalibur 3.0.63 software package. Chromatography was performed with a Phenomenex Synergi Hydro-RP column (100×2 mm, 2.5 μm particle size). Solvent A is 10 mM tributylamine and 15 mm acetic acid in water; Solvent B is methanol. The gradient is: 0 min, 0% B; 2.5 min, 0% B; 5 min, 20% B; 7.5 min, 20% B; 13 min, 55% B; 15.5 min, 95% B; 18.5 min, 95% B; 19 min, 0% B; 25 min, 0% B. The injection volume was 10 μl. The column temperature was set to 40° C., and the flow rate was 200 μl/min. The Exactive was operated in negative ionization mode with an electrospray ionization interface. The instrument parameters are as follows: sheath gas flow rate 30 (arbitrary units), aux gas flow rate 10 (arbitrary units), sweep gas flow rate 3 (arbitrary units), spray voltage 3 kV, capillary temperature 325° C., capillary voltage −25 V, tube lens voltage −50 V. The scan range was set to 80-1,000 m/z, with a maximum inject time of 250 ms, resolution of 100,000 at 1 Hz, and AGC (automatic gain control) target 1×10^6. The data were analyzed using the MAVEN software suite with signal intensity determined as the Peak Area (Top). For metabolic labelling experiments, the data were corrected to account for the natural abundance of nitrogen-15 using IsoCorrectoR (Heinrich, P. et al. Sci Rep 8, 17910, doi: 10.1038/s41598-018-36293-4 (2018)).
# [2] = system: oxidative PPP; test: Oxidative PPP flux calculation (1,2-[13C2] glucose); details: sulfite vs vehicle treated cells
# Method: Cells were seeded in six-well plates and incubated overnight, then given 2 ml of fresh medium containing 25 mM 1,2-[13C2] glucose. Aliquots of this medium were frozen and stored for analysis to determine the initial glucose concentration, and cells in replicate plates were trypsinized and counted to determine initial cell numbers. After 24 h, the spent medium was extracted as above and frozen until analysis, and the cells were trypsinized and counted to determine the final cell numbers.
# For lactate isotopomer analysis the samples were analyzed directly. The relative quantities of M0, M1, M2 and M3 lactate were corrected for natural carbon-13 abundance using the IsoCorrectoR software package (Heinrich, P. et al. Sci Rep 8, 17910, doi: 10.1038/s41598-018-36293-4 (2018)). and the oxidative PPP-shunting ratio was calculated by taking the ratio M1/(M1+M2) (Badur, M. G. et al. Cell Rep 25, 1680, doi: 10.1016/j.celrep.2018.10.099 (2018)); since there is no difference in growth rates between the vehicle and sulfite treated cell lines, it is assumed that the biosynthetic demand for ribose-5-phosphate or any other PPP intermediate is the same in each case, so any increase in this ratio reflects an increase in NADPH production by the oxidative PPP.
# [3] = system: MTHFD2; test: Protein level after sulfite treatment (Western blotting), MTHFD2; details: following treatment with sulfite
# Method: To test if sulfite changed mitochondrial protein levels, SHMT2 and MTHFD2 protein levels were measured following treatment with sulfite. No changes in protein levels were observed (FIG. 9).
# Briefly, cells were lysed in NP-40 lysis buffer (50 mM Tris [pH 7.4], 250 mM NaCl, 5 mM EDTA, 50 mM NaF, 1 mM Na3VO4, 1% Nonidet P40) containing complete mini protease inhibitors (Roche). The protein concentration of lysates was quantified using BCA Protein Assay Kit from Life Technologies (#23227). 20 μg of total protein was loaded into SDS-PAGE gel and transferred to a PVDF membrane (Bio-Rad) using standard techniques. The primary antibodies and concentrations used for Western blotting were Vinculin (1:1000, Sigma-Aldrich, #V4505), SUOX (1:1000, Abcam, #ab129094), SHMT2 (1:1000, Sigma-Aldrich, #HPA-020549), IDH1 (1:1000, Proteintech, #12332-1-AP), ME1 (1:1000,), MTHFD2 (1:1000, Abcam, #ab56772), Flag (1:1000, Sigma, #F1804), GPX4 (1:1,000, R&D, #MAB5457), COQ2 (1:1,000, Santa Cruz, sc-517107) and FSP1 (1:1000, Proteintech, #20886-1-AP).
# [4] = sulfite vs vehicle treated cells
smiles,measurement,setting,value
"O=S([O-])[O-].[Na+].[Na+] [sulfite, sodium sulfite]",Levels of S-sulfocysteine,[1]; sulfite treated samples,increase
same,level of 6-phospho-D-Gluconate,[1]; [4],increase
same,level of D-Glyceraldehyde 3-phosphate,[1]; [4],increase
same,level of D-sedoheptulose-1/7 phosphate,[1]; [4],increase
same,level of ribose phosphate,[1]; [4],increase
same,oxPPP shunting,[2],increase
same,MTHFD2 protein level,[3],No changes
